Measured values reported in patent US5891909A, “Amidinohydrazones as protease inhibitors” (3-Dimensional Pharmaceuticals, Inc., priority 1997, dated 1999).
Counter-ions that a name gives are not always drawn. Like-named read-outs stand apart in the source and are kept apart here.

What was measured:
Format in all cases: biochemical
human leukocyte elastase = assay: Elastase inhibition (hydrolysis of N-succinyl-Ala-Ala-Pro-Val-p-nitroanilide); conditions: at 1.6 μM
Excerpt: (§1) All buffer salts were obtained from Sigma Chemical Company (St. Louis, Mo.), and were of the highest purity available. The enzyme substrates, N-benzoyl-Phe-Val-Arg-p-nitroanilide (Sigma B7632), N-benzoyl-Ile-Glu-Gly-Arg-p-nitroanilide hydrochloride (Sigma B2291), N-p-Tosyl-Gly-Pro-Lys-p-nitroanilide (Sigma T6140), N-succinyl-Ala-Ala-Pro-Phe-p-nitroanilide (Sigma S7388) and N-CBZ-Val-Gly-Arg-p-nitroanilide (Sigma C7271) were obtained from Sigma. N-succinyl-Ala-Ala-Pro-Arg-p-nitroanilide (BACHEM L-1720) and N-succinyl-Ala-Ala-Pro-Val-p-nitroanilide (BACHEM L-1770) were obtained from BACHEM (King of Prussia, Pa.). […]
(§2) All assays are based on the ability of the test compound to inhibit the enzyme catalyzed hydrolysis of a peptide p-nitroanilide substrate. […] In general, substrate concentrations are lower than the experimentally determined value for Km. […]
(§3) In a typical Ki determination, into each well of a 96 well plate is pipetted 280 μL of substrate solution, 10 μL of test compound solution, and the plate allowed to thermally equilibrate at 37° C. in a Molecular Devices plate reader for >15 minutes. Reactions were initiated by the addition of a 10 μL aliquot of enzyme and the absorbance increase at 405 nm is recorded for 15 minutes. […] The data are fit to a linear regression, and the value of the slope of the line calculated. The inverse of the slope is the experimentally determined Ki value. […]

human factor Xa = assay: Factor Xa inhibition (hydrolysis of N-benzoyl-Ile-Glu-Gly-Arg-p-nitroanilide); conditions: at 1.6 μM
Excerpt: as §1, §2, §3

human α-thrombin = target: T1, human α-thrombin (Homo sapiens, UniProt P00734); assay: Thrombin inhibition, Ki determination (hydrolysis of N-succinyl-Ala-Ala-Pro-Arg-p-nitroanilide); conditions: pH 7.5, 37° C.
T1 construct: Human α-thrombin, human factor Xa and human plasmin were obtained from Enzyme Research Laboratories; purchased Enzyme Research Laboratories (South Bend, Ind.)
Excerpt: All buffer salts were obtained from Sigma Chemical Company (St. Louis, Mo.), and were of the highest purity available. The enzyme substrates, N-benzoyl-Phe-Val-Arg-p-nitroanilide (Sigma B7632), N-benzoyl-Ile-Glu-Gly-Arg-p-nitroanilide hydrochloride (Sigma B2291), N-p-Tosyl-Gly-Pro-Lys-p-nitroanilide (Sigma T6140), N-succinyl-Ala-Ala-Pro-Phe-p-nitroanilide (Sigma S7388) and N-CBZ-Val-Gly-Arg-p-nitroanilide (Sigma C7271) were obtained from Sigma.
Human α-thrombin, human factor Xa and human plasmin were obtained from Enzyme Research Laboratories (South Bend, Ind.). Bovine α-chymotrypsin (Sigma C4129), bovine trypsin (Sigma T8642) and human kidney cell urokinase (Sigma U5004) were obtained from Sigma. Human leukocyte elastase was obtained from Elastin Products (Pacific, Mo.).
All assays are based on the ability of the test compound to inhibit the enzyme catalyzed hydrolysis of a peptide p-nitroanilide substrate. […] The final concentrations for each of the substrates is listed below. In general, substrate concentrations are lower than the experimentally determined value for Km. Test compounds are prepared as a 1.0 mg/ml solution in DMSO. Dilutions are prepared in DMSO yielding 8 final concentrations encompassing a 200 fold concentration range. Enzyme solutions are prepared at the concentrations listed below in assay buffer.
Data corresponding to less than 10% of the total substrate hydrolysis were used in the calculations. The ratio of the velocity (rate of change in absorbance as a function of time) for a sample containing no test compound is divided by the velocity of a sample containing test compound, and is plotted as a function of test compound concentration. The data are fit to a linear regression, and the value of the slope of the line calculated. The inverse of the slope is the experimentally determined Ki value.
Thrombin activity was assessed as the ability to hydrolyze the substrate N-succinyl-Ala-Ala-Pro-Arg-p-nitroanilide.

human kidney urokinase = assay: Urokinase inhibition (hydrolysis of N-CBZ-Val-Gly-Arg-p-nitroanilide); conditions: at 1.6 μM
Excerpt: as §1, §2, §3

human plasmin = assay: Plasmin inhibition (hydrolysis of N-p-Tosyl-Gly-Pro-Lys-p-nitroanilide); conditions: at 1.6 μM
Excerpt: as §1, §2, §3

bovine α-chymotrypsin = assay: Chymotrypsin inhibition (hydrolysis of N-succinyl-Ala-Ala-Pro-Phe-p-nitroanilide); conditions: at 1.6 μM
Excerpt: as §1, §2, §3

bovine trypsin = assay: Trypsin inhibition (hydrolysis of N-benzoyl-Phe-Val-Arg-p-nitroanilide); conditions: at 1.6 μM
Excerpt: as §1, §2, §3

| % Inhibition (elastase) (human leukocyte elastase) [%] | Ki (human α-thrombin; Table 2, read-out: Ki (thrombin)) [nM] | % Inhibition (urokinase) (human kidney urokinase) [%] | Ki (human α-thrombin; Table 1, read-out: Thrombin Ki) [nM] | Compound | % Inhibition (Factor Xa) (human factor Xa) [%] | % Inhibition (plasmin) (human plasmin) [%] | % Inhibition (chymotrypsin) (bovine α-chymotrypsin) [%] | % Inhibition (trypsin) (bovine trypsin) [%] |
| --- | --- | --- | --- | --- | --- | --- | --- | --- |
| 0 | 13 | 0 | – | Cc1cc(OCCC=NNC(=N)N)cc(OS(=O)(=O)c2ccccc2Cl)c1 [Example 1, 2-[2-[3-(2-Chlorophenylsulfonyloxy)-5-methylphenoxy]ethyl-1-methylene]hydrazinecarboximidamide hydrochloride] | 0 | 0 | 0 | 0 |
| – | – | – | 26.4 | CCOC(=O)CCCCCN(c1cc(C)cc(OCCC=NNC(=N)N)c1)S(=O)(=O)c1ccccc1C(F)(F)F [Example 5, 2-[2-[(5-methyl-3-(N-(5-ethoxycarbonylpentyl)-N-(2-trifluoromethylphenylsulfonyl)amino)phenoxy]ethyl-1-methylene]hydrazinecarboximidamide nitrate] | – | – | – | – |
